Experimental data: patent US20230407243A1, “GENETIC PLATFORM TO INVESTIGATE THE FUNCTIONS OF BACTERIAL DRUG EFFLUX PUMPS” (priority 2022, published 2023)
Like-named read-outs stand apart in the source and are kept apart here.

Tests used:
Format in all cases: cell-based, Escherichia coli
EKO-35 araC::acrEF = test: MIC susceptibility profiling, efflux platform; conditions: for Fold change of MICs: EKO-35 araC::acrEF compared to EKO-35
Outline: (§1)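 Broth MIC in cation-adjusted Mueller-Hinton (MHB II) following twofold compound titration in duplicate. Bacteria were prepared at OD600 ~1.0 in PBS and diluted 1/2000. Endpoint OD600 after 18 h at 37 °C was corrected using the pre-incubation reading.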

EKO-35 araC::macAB = test: MIC susceptibility profiling, efflux platform; conditions: for Fold change of MICs: EKO-35 araC::macAB compared to EKO-35
Outline: as §1

EKO-35 araC::emrAB = test: MIC susceptibility profiling, efflux platform; conditions: for Fold change of MICs: EKO-35 araC::emrAB compared to EKO-35
Outline: as §1

EKO-35 araC::emrKY = test: MIC susceptibility profiling, efflux platform; conditions: for Fold change of MICs: EKO-35 araC::emrKY compared to EKO-35
Outline: as §1

EKO-35 araC::mdtEF = test: MIC susceptibility profiling, efflux platform; conditions: for Fold change of MICs: EKO-35 araC::mdtEF compared to EKO-35
Outline: as §1

EKO-35 araC::acrBD408A = test: MIC susceptibility profiling, efflux platform; conditions: for Fold change of MICs: EKO-35 araC::acrBD408A compared to EKO-35
Outline: as §1

EKO-35 araC::acrEF Pore = test: MIC susceptibility profiling, porinated efflux platform; conditions: for Fold changes of MICs: EKO-35 araC::acrEF Pore compared to EKO-35-Pore
Outline: (§2)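 E. coli strains carrying a genomically integrated constitutive fhuA ΔC/Δ4L pore were grown 18 h in LB at 37 °C, then diluted 1/2000 in MHB II from OD600 ~1.0. Compounds were tested in duplicate, 2-fold serial titration, for 18 h at 37 °C with shaking. MIC came from OD600 with the pre-incubation background subtracted.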

EKO-35 araC::acrD Pore = test: as above; conditions: for Fold changes of MICs: EKO-35 araC::acrD Pore compared to EKO-35-Pore
Outline: as §2

EKO-35 araC::emrKY Pore = test: as above; conditions: for Fold changes of MICs: EKO-35 araC::emrKY Pore compared to EKO-35-Pore
Outline: as §2

EKO-35 araC::emrAB Pore = test: as above; conditions: for Fold changes of MICs: EKO-35 araC::emrAB Pore compared to EKO-35-Pore
Outline: as §2

EKO-35 araC::macAB Pore = test: as above; conditions: for Fold changes of MICs: EKO-35 araC::macAB Pore compared to EKO-35-Pore
Outline: as §2

[1] = system: EKO-35 araC::acrBD408A Pore; test: as above; conditions: for Fold changes of MICs: EKO-35 araC::acrBD408A Pore compared to EKO-35-Pore
Outline: as §2

EKO-35 araC::mexCD Pore = test: as above; conditions: for Fold changes of MICs: EKO-35 araC::mexCD Pore compared to EKO-35-Pore
Outline: as §2

EKO-35 araC::acrB Pore = test: as above; conditions: for Fold changes of MICs: EKO-35 araC::acr-B Pore compared to EKO-35-Pore
Outline: as §2

EKO-35 araC::mdtBC Pore = test: as above
Outline: as §2

EKO-35 araC::mdtEF Pore = test: as above
Outline: as §2

wild-type (WT) K-12-Pore = test: microbe, parasite or virus in culture; conditions: technical duplicate; for MIC: Escherichia coli
Outline: as §2

ΔtolC-Pore = test: microbe, parasite or virus in culture; conditions: for Minimum inhibitory concentration (MIC), Pore ΔtolC: Table 10, with pore
Outline: as §2

[2] = Table 13A, non-porinated, technical duplicate
[3] = Table 13B, non-porinated, technical duplicate
[4] = Table 14A, porinated, technical duplicate

CC[C@H]1OC(=O)[C@H](C)[C@@H](O[C@H]2C[C@@](C)(OC)[C@@H](O)[C@H](C)O2)[C@H](C)[C@@H](O[C@@H]2O[C@H](C)C[C@H](N(C)C)[C@H]2O)[C@](C)(O)C[C@@H](C)CN(C)[C@H](C)[C@@H](O)[C@]1(C)O [azithromycin]
Fold change of MICs (EKO-35 araC::acrEF): 8 fold
MIC (EKO-35 araC::acrEF; Escherichia coli, Table 13A, non-porinated, technical duplicate, read-out: Minimum Inhibitory Concentration, EKO-35 araC::acrEF): 6.25 µg/mL
Fold change of MICs (EKO-35 araC::macAB): 4 fold
MIC (EKO-35 araC::macAB; Escherichia coli, Table 13B, non-porinated, technical duplicate, read-out: Minimum Inhibitory Concentration, EKO-35 araC::macAB): 3.12 µg/mL
efflux pump-mediated resistance vs EKO-35 (EKO-35 araC::macAB; MacAB): specific
Fold change of MICs (EKO-35 araC::emrAB): 1 fold
MIC (EKO-35 araC::emrAB; Escherichia coli, Table 13B, non-porinated, technical duplicate, read-out: Minimum Inhibitory Concentration, EKO-35 araC::emrAB): 0.781 µg/mL
Fold change of MICs (EKO-35 araC::emrKY): 1 fold
Fold change of MICs (EKO-35 araC::mdtEF): 8 fold
MIC (EKO-35 araC::mdtEF; Escherichia coli, Table 13A, non-porinated, technical duplicate, read-out: Minimum Inhibitory Concentration, EKO-35 araC::mdtEF): 6.25 µg/mL
Fold change of MICs (EKO-35 araC::acrBD408A): 1 fold
MIC (EKO-35 araC::acrBD408A; Escherichia coli, Table 13B, non-porinated, technical duplicate, read-out: Minimum Inhibitory Concentration, EKO-35 araC::acrBD408A): 0.781 µg/mL
Fold changes of MICs (EKO-35 araC::acrEF Pore): 4 fold
MIC (EKO-35 araC::acrEF Pore; Escherichia coli, Table 14A, porinated, technical duplicate, read-out: Minimum inhibitory concentration, EKO-35 araC::acrEF Pore): 0.195 µg/mL
Fold changes of MICs (EKO-35 araC::acrD Pore): 1 fold
MIC (EKO-35 araC::acrD Pore; Escherichia coli, Table 14A, porinated, technical duplicate, read-out: Minimum inhibitory concentration, EKO-35 araC::acrD Pore): 0.024 µg/mL
Fold changes of MICs (EKO-35 araC::emrKY Pore): 1 fold
MIC (EKO-35 araC::emrKY Pore; Escherichia coli, EKO-35 araC::emrKY Pore, technical duplicate, read-out: Minimum inhibitory concentration): 0.024 µg/mL
Fold changes of MICs (EKO-35 araC::emrAB Pore): 1 fold
MIC (EKO-35 araC::emrAB Pore; Escherichia coli, EKO-35 araC::emrAB Pore, technical duplicate, read-out: Minimum inhibitory concentration): 0.049 µg/mL
Fold changes of MICs (EKO-35 araC::macAB Pore): 2 fold
MIC (EKO-35 araC::macAB Pore; Escherichia coli, EKO-35 araC::macAB Pore, technical duplicate, read-out: Minimum inhibitory concentration): 0.098 µg/mL
fold increase of MIC over EKO-35 (EKO-35 araC::macAB Pore; MacAB with a porinated OM): 2 fold
Fold changes of MICs [1]: 2 fold
MIC ([1]; Escherichia coli, EKO-35 araC::acrBD408A Pore, technical duplicate, read-out: Minimum inhibitory concentration): 0.098 µg/mL
Fold changes of MICs (EKO-35 araC::mexCD Pore): 2 fold
MIC (EKO-35 araC::mexCD Pore; Escherichia coli, EKO-35 araC::mexCD Pore, technical duplicate, read-out: Minimum inhibitory concentration): 0.098 µg/mL
efflux pump-mediated resistance vs EKO-35-Pore (EKO-35 araC::mexCD Pore; MexCD, OM compromised): no longer associated MexCD with resistance
Fold changes of MICs (EKO-35 araC::acrB Pore): 4 fold
MIC (EKO-35 araC::acrB Pore; Escherichia coli, Table 14A, porinated, technical duplicate, read-out: Minimum inhibitory concentration, EKO-35 araC::acrB Pore): 0.195 µg/mL
Fold changes of MICs (EKO-35 araC::mdtBC Pore; EKO-35 araC::mdtBC Pore compared to EKO-35-Pore): 1 fold
MIC (EKO-35 araC::mdtBC Pore; Escherichia coli, EKO-35 araC::mdtBC Pore, technical duplicate, read-out: Minimum inhibitory concentration): 0.049 µg/mL
Fold changes of MICs (EKO-35 araC::mdtEF Pore; EKO-35 araC::mdtEF Pore compared to EKO-35-Pore): 4 fold
MIC (EKO-35 araC::mdtEF Pore; Escherichia coli, Table 14A, porinated, technical duplicate, read-out: Minimum inhibitory concentration, EKO-35 araC::mdtEF Pore): 0.195 µg/mL
MIC (wild-type (WT) K-12-Pore; Table 10, with pore, read-out: Minimum inhibitory concentration (MIC), Pore K-12): 0.391 µg/mL
MIC (wild-type (WT) K-12-Pore; Table 14A, porinated, read-out: Minimum inhibitory concentration, K-12 (WT)-Pore): 0.391 µg/mL
MIC (ΔtolC-Pore; Escherichia coli, 18 h, read-out: Minimum inhibitory concentration, ΔtolC-Pore): 0.049 µg/mL
Minimum inhibitory concentration (MIC), Pore ΔtolC (ΔtolC-Pore; technical duplicate): 0.049 µg/mL

O=c1oc(-c2ccccc2Cl)nn1-c1ccc(C(F)(F)F)cn1 [compound 5]
Fold change of MICs (EKO-35 araC::acrEF): 16 fold
Minimum Inhibitory Concentration, EKO-35 araC::acrEF (EKO-35 araC::acrEF; [2]): 320 µg/mL
Fold change of MICs (EKO-35 araC::macAB): 1 fold
Minimum Inhibitory Concentration, EKO-35 araC::macAB (EKO-35 araC::macAB; [3]): 20 µg/mL
Fold change of MICs (EKO-35 araC::emrAB): 16 fold
Minimum Inhibitory Concentration, EKO-35 araC::emrAB (EKO-35 araC::emrAB; [3]): 320 µg/mL
Fold change of MICs (EKO-35 araC::emrKY): 1 fold
Minimum Inhibitory Concentration, EKO-35 araC::emrKY (EKO-35 araC::emrKY; [3]): 20 µg/mL
Fold change of MICs (EKO-35 araC::mdtEF): 16 fold
Minimum Inhibitory Concentration, EKO-35 araC::mdtEF (EKO-35 araC::mdtEF; [2]): 320 µg/mL
Fold change of MICs (EKO-35 araC::acrBD408A): 1 fold
Minimum Inhibitory Concentration, EKO-35 araC::acrBD408A (EKO-35 araC::acrBD408A; [3]): 20 µg/mL
Fold changes of MICs (EKO-35 araC::acrEF Pore): 16 fold
Minimum inhibitory concentration, EKO-35 araC::acrEF Pore (EKO-35 araC::acrEF Pore; [4]): 320 µg/mL
Fold changes of MICs (EKO-35 araC::acrD Pore): 1 fold
Minimum inhibitory concentration, EKO-35 araC::acrD Pore (EKO-35 araC::acrD Pore; [4]): 10 µg/mL
Fold changes of MICs (EKO-35 araC::emrKY Pore): 1 fold
Minimum inhibitory concentration (EKO-35 araC::emrKY Pore; EKO-35 araC::emrKY Pore, technical duplicate): 10 µg/mL
Fold changes of MICs (EKO-35 araC::emrAB Pore): 16 fold
Minimum inhibitory concentration (EKO-35 araC::emrAB Pore; EKO-35 araC::emrAB Pore, technical duplicate): 320 µg/mL
Fold changes of MICs (EKO-35 araC::macAB Pore): 1 fold
Minimum inhibitory concentration (EKO-35 araC::macAB Pore; EKO-35 araC::macAB Pore, technical duplicate): 10 µg/mL
Fold changes of MICs [1]: 1 fold
Minimum inhibitory concentration ([1]; EKO-35 araC::acrBD408A Pore, technical duplicate): 20 µg/mL
Fold changes of MICs (EKO-35 araC::mexCD Pore): 16 fold
Minimum inhibitory concentration (EKO-35 araC::mexCD Pore; EKO-35 araC::mexCD Pore, technical duplicate): 320 µg/mL
Fold changes of MICs (EKO-35 araC::acrB Pore): 16 fold
Minimum inhibitory concentration, EKO-35 araC::acrB Pore (EKO-35 araC::acrB Pore; [4]): 320 µg/mL
Minimum inhibitory concentration (EKO-35 araC::mdtBC Pore; EKO-35 araC::mdtBC Pore, technical duplicate): 10 µg/mL
Minimum inhibitory concentration, EKO-35 araC::mdtEF Pore (EKO-35 araC::mdtEF Pore; [4]): 320 µg/mL
Minimum inhibitory concentration (MIC), Pore K-12 (wild-type (WT) K-12-Pore; Table 10, with pore): 320 µg/mL
Minimum inhibitory concentration, K-12 (WT)-Pore (wild-type (WT) K-12-Pore; Table 14A, porinated): 320 µg/mL
Minimum inhibitory concentration (MIC), Pore ΔtolC (ΔtolC-Pore; technical duplicate): 2.5 µg/mL
Minimum inhibitory concentration, ΔtolC-Pore (ΔtolC-Pore; [4]): 2.5 µg/mL
